Laboratory results reported in publication PMC2844763 (Bioorganic & medicinal chemistry letters, 2010).
“Also recorded” adds a separate entry of the source.

Experiments:
E. coli MetAP = E. coli MetAP (Escherichia coli, UniProt P0AE18); test: cell-based MetAP assay; conditions: Ca(II) treated cells; result in words
MetAP in the Co(II)-form = conditions: result in words; ref [10]; cited from earlier work
[1] = test system: E. coli MetAP in the Fe(II)-form; conditions: result in words; ref [11] and [16]; cited from earlier work
E. coli AS19 strain = conditions: result in words; ref [11] and [16]; cited from earlier work

Chain of E. coli MetAP (P0AE18 whole entry): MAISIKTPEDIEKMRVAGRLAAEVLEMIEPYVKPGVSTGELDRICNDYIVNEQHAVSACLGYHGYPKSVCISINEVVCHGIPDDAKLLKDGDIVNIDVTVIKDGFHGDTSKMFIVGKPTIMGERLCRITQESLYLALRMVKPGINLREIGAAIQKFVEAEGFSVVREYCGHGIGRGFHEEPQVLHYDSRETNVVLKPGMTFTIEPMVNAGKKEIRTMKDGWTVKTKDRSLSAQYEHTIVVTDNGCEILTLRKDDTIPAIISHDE

SMILES	inhibition of intracellular Met-AMC hydrolysis (cellular MetAP activity) (E. coli MetAP)	potency and selectivity towards purified MetAP in the Co(II)-form (MetAP in the Co(II)-form)	inhibition of purified MetAP in the Fe(II)-form [1]	inhibition of bacterial growth (E. coli AS19 strain)
Cc1nc(-c2ccc(O)c(O)c2)cs1 [compound 1]	displayed inhibition; also recorded: inhibited in a time-dependent fashion			
Cc1nc(-c2cccc(O)c2)cs1 [compound 3]	no inhibition			
O=C(NC1CC1)c1ccsc1-c1ccc(O)c(O)c1 [compound 23]	exceptions			
Cc1nc(-c2ccc(O)cc2O)cs1 [compound 4]	no inhibition			
COc1ccc(-c2csc(C)n2)cc1OC [compound 2]	decreased potency			
O=C(NCc1ccccn1)C(=O)Nc1nccs1 [compound 31]	no inhibition	highly potent and selective	weak inhibition	did not halt bacterial growth
O=C(O)c1ccc(-c2cc(Cl)ccc2Cl)o1 [compound 29]			weak inhibition	did not halt bacterial growth
O=C(O)c1ccc(-c2ccccc2Cl)o1 [compound 28]			weak inhibition	did not halt bacterial growth
O=C(Nc1nccs1)C(=O)NC1CCCC1 [compound 30]	no inhibition	highly potent and selective	weak inhibition	did not halt bacterial growth
O=C(NC1CC1)c1ccc(-c2ccc(O)c(O)c2)s1 [compound 22]	exceptions			
